Results taken from paper PMC12735844, “2-(Trihydroxyphenyl)thienopyrimidinones as Key Scaffolds for Targeting a Novel Allosteric Site of HIV-1 Integrase” (Molecules, 2025).
Several values for one entry are separate records, joined by “and”; a condition that tells them apart may be missing. Equal entries are not always repeated. Where two headings read alike, the source gives them in different places.

Tests used:
[1] = molecular target: T1, HIV-1 IN (wild-type) in the presence of LEDGF/p75 (Human immunodeficiency virus type 1 group M subtype B, UniProt P12497); assay: HTRF HIV-1 IN LEDGF/p75-dependent assay (3'-processing and strand transfer), wild-type IN, with or without sucrose; format: biochemical; details: for IC50: IC50 IN LEDGF/p75-dependent integration
T1 construct: IN is a 32 kDa multimeric enzyme comprising three domains; His; made in house; host or cells: Escherichia coli BL21 (DE3)
Experimental: (§1) The IN LEDGF/p75-dependent and indepentent assay was performed for the evaluation of 3′-processing and strand-transfer IN reactions inhibition in the presence/absence of recombinant LEDGF/p75 protein, as previously described.
(§2) The same assay in the presence of HIV-1 IN wt, K173A and H185A mutant proteins, was used to evaluate the effect of sucrose in the presence of selected compounds.

wt RT RNase H = molecular target: wt RT RNase H; parameters: method as in PMID 33143469; details: previously reported quinazolinone; cited from earlier work
[2] = molecular target: T1, HIV-1 IN (wild-type) in the presence of LEDGF/p75; parameters: method as in PMID 37764476, PMID 23631411; details: previously reported dihydroxyphenyl-thienopyrimidinones; read-out: IN LEDGF/p75-dependent IC50; cited from earlier work
[3] = molecular target: T2, HIV-1 IN in the absence of LEDGF/p75 (Human immunodeficiency virus type 1 group M subtype B, UniProt P12497); assay: HTRF HIV-1 IN LEDGF/p75-independent assay; format: biochemical; details: mean ± SE, three experiments, read-out: IC50 IN LEDGF/p75-independent integration
T2 construct: His; made in house; host or cells: Escherichia coli BL21 (DE3)
Experimental: as §1

HIV-1 IN K173A mutant = molecular target: T3, HIV-1 IN K173A mutant (Human immunodeficiency virus type 1 group M subtype B, UniProt P12497, K1320A); assay: HTRF IN LEDGF/p75-dependent assay on K173A mutant, with or without sucrose; format: biochemical; details: for Fold of increase of potency, K173A mutant: with sucrose vs alone
T3 construct: IN is a 32 kDa multimeric enzyme comprising three domains; His; made in house; host or cells: Escherichia coli BL21 (DE3)
Experimental: (§3) The commercial QuikChange mutagenesis Kit (Agilent Technologies Inc., Santa Clara, CA, USA) were used to introduce the selected substitutions on HIV-1 IN wt plasmid and the correct presence of alanine in 173 and 185 position were evaluated in the electropherogram provided by Bio-Fab, after the sequencing.
(§4) HIV-1 IN wt, K173A and H185A mutant proteins were expressed in Escherichia coli strain BL21 (DE3) after transformation with a plasmid containing protein gene. Recombinant proteins were then purified using a Ni-Sepharose column and a heparin column and stored as previously described. LEDGF/p75 with 6-his and FLAG tags were purified with a heparin column and a Superdex 200 GL (Merck Sigma Aldrich, Milan, Italy) column previously described.
as §1, §2

HIV-1 IN multimerization = molecular target: T4, HIV-1 IN multimerization (Human immunodeficiency virus type 1 group M subtype B, UniProt P12497); assay: HTRF-based assay of higher-order, aberrant IN multimerization; format: biochemical; details: dash = no induction of higher-order
T4 construct: IN is a 32 kDa multimeric enzyme comprising three domains; made in house; host or cells: Escherichia coli BL21 (DE3)
Experimental: (§5) HIV-1 His and FLAG-tagged INs were mixed in a mix buffer previously described and compounds added to the mixture and incubated for 2.5 h at room temperature. At the end of the time, a mixture of anti-His6-XL665 and anti-FLAG-EuCryptate antibodies were added to the reaction and, after an incubation time of 3 h, the HTRF signal was recorded as described in the previous paragraph.

[4] = molecular target: T5, HIV-1 IN-IN subunit exchange (Human immunodeficiency virus type 1 group M subtype B, UniProt P12497); assay: HTRF-based IN-IN subunit exchange assay; format: biochemical; details: for IC50: mean ± SE, three experiments
T5 construct: IN is a 32 kDa multimeric enzyme comprising three domains; made in house; host or cells: Escherichia coli BL21 (DE3)
Experimental: as §5

[5] = tested on: HIV-1RF isolate in CEM-SS cells; assay: Antiviral activity, XTT-based cell viability assay
Experimental: (§6) Antiviral activity of selected thienopyrimidinones was determined via the 2,3-bis[2-methoxy-4-nitro-5-sulfophenyl]-5-[(phenylamino)-carbonyl]-2H tetrazolium hydroxide (XTT)-based cell viability assay, using the HIV-1RF isolate and human T-cell line CEM-SS.

HIV-1 IN H185A mutant = molecular target: T6, HIV-1 IN H185A mutant (Human immunodeficiency virus type 1 group M subtype B, UniProt P12497, F1332A); assay: HTRF IN LEDGF/p75-dependent assay on H185A mutant, with or without sucrose; format: biochemical; details: for IC50: LEDGF/p75-dependent activity; for Fold of increase of potency, H185A mutant: with sucrose vs alone
T6 construct: IN is a 32 kDa multimeric enzyme comprising three domains; His; made in house; host or cells: Escherichia coli BL21 (DE3)
Experimental: as §3, §4, §1, §2

human T-cell line CEM-SS = assay: Cytotoxicity in the XTT-based cell viability assay; details: CEM-SS cells
Experimental: as §6

[6] = molecular target: T7, HIV-1 IN/LEDGF/p75 binding (Human immunodeficiency virus type 1 group M subtype B, UniProt P12497); assay: HTRF-based IN-LEDGF/p75 binding assay; details: mean ± SE, three experiments
T7 construct: IN is a 32 kDa multimeric enzyme comprising three domains; made in house; host or cells: Escherichia coli BL21 (DE3)
Experimental: The IN-LEDGF/p75 binding was evaluated using a FRET method, in which His-IN was pre-incubated with test compounds in a mix buffer previously described, for 30 min at room temperature. After the addition of FLAG-LEDGF/p75 and a mixture of anti-His6-XL665 and anti-FLAG-EuCryptate antibodies, the reaction was read after 4 h at 4 °C, using 314 nm for excitation wavelength and […] and 620 nm for the wavelength of the acceptor and donor emission, respectively, with a Perkin Elmer Victor 3 plate reader (Perkin Elmer, Waltham, MA, USA), and the HTRF signal calculated by the emission ratio 665 nm/620 nm multiplied by 10.000.

[7] = in the presence of LEDGF/p75, compound alone, mean ± SE, three experiments
[8] = LEDGF/p75-dependent, IC50 alone vs with sucrose
[9] = HIV-1 IN H185A mutant IC50 alone, no sucrose
[10] = HIV-1 IN H185A mutant IC50 with sucrose, in the presence of sucrose

Q: For `Cc1sc2nc(-c3cc(O)c(O)cc3O)[nH]c(=O)c2c1C` [C00002], which IC50 [1, 7] is on record?
A: 0.45 ± 0.09 µM

Q: For `O=c1[nH]c(-c2cc(O)c(O)c(O)c2)nc2sc3c(c12)CCCCC3` [C00006], which IC50 [1, 7] is on record?
A: 0.31 ± 0.035 µM

Q: Which IC50 [1, 7] does the source give for `O=c1[nH]c(-c2c(O)cc(O)cc2O)nc2sc3c(c12)CCCCC3` [C00007] here?
A: 5.2 ± 1.2 µM

Q: With `O=c1[nH]c(-c2cc(O)c(O)cc2O)nc2sc3c(c12)CCC3` [C00008] as the molecule, how does the IC50 [1, 7] read?
A: 1.96 ± 0.125 µM

Q: For `O=c1[nH]c(-c2cc(O)c(O)c(O)c2)nc2sc3c(c12)CCC3` [C00009], which IC50 [1, 7] is on record?
A: 0.87 ± 0.045 µM

Q: With `O=c1[nH]c(-c2ccc(O)c(O)c2)nc2ccc(I)cc12` [Compound 1] as the molecule, how does the IC50 (wt RT RNase H) read?
A: 0.11 ± 0.01 µM

Q: With `Cc1sc2nc(-c3cc(O)cc(O)c3)[nH]c(=O)c2c1C` [Compound 2] as the molecule, how does the IC50 [2] read?
A: 3.7 ± 0.73 µM

Q: Which IC50 [2] does the source give for `O=c1[nH]c(-c2cc(O)cc(O)c2)nc2sc3c(c12)CCCCC3` [Compound 3] here?
A: 3.37 ± 0.48 µM

Q: With `Cc1sc2nc(-c3cc(O)ccc3O)[nH]c(=O)c2c1C` [Compound 4] as the molecule, how does the IC50 [2] read?
A: 85 ± 6 µM

Q: For `Cc1sc2nc(-c3cc(O)c(O)c(O)c3)[nH]c(=O)c2c1C` [Compound 5, 5,6-Dimethyl-2-(3,4,5-trihydroxyphenyl)thieno[2,3-d]pyrimidin-4(3H)-one], which IC50 [1, 7] is on record?
A: 8 ± 2 µM

Q: What about the IC50 [3] of the same molecule?
A: 5.35 ± 0.55 µM

Q: What does the source list for `Cc1sc2nc(-c3cc(O)c(O)cc3O)[nH]c(=O)c2c1C` [Compound 6, 5,6-Dimethyl-2-(2,4,5-trihydroxyphenyl)thieno[2,3-d]pyrimidin-4(3H)-one]?
A: IC50 (HIV-1 IN K173A mutant): 6.5 ± 1.7 µM; Fold of increase of potency, K173A mutant (HIV-1 IN K173A mutant): 32.5; MI50 IN multimerization (HIV-1 IN multimerization): none succeeded in inducing multimerization; IC50 [4]: 5.45 ± 0.05 µM; effect on viral replication [5]: not able to inhibit viral replication; reduction in activity by sucrose (times) [1, 8]: approximately 10; IC50 [3]: 0.76 ± 0.01 µM; IC50 (HIV-1 IN H185A mutant; [9]): 4.64 ± 0.7 µM; IC50 (HIV-1 IN H185A mutant; [10]): 0.48 ± 0.08 µM; Fold of increase of potency, H185A mutant (HIV-1 IN H185A mutant): 9.7; cytotoxicity (human T-cell line CEM-SS): devoid of cytotoxicity; IC50 [6]: 75 ± 12 µM

Q: Which IC50 [1, 7] does the source give for `Cc1sc2nc(-c3c(O)cc(O)cc3O)[nH]c(=O)c2c1C` [Compound 7, 5,6-Dimethyl-2-(2,4,6-trihydroxyphenyl)thieno[2,3-d]pyrimidin-4(3H)-one] here?
A: 6.1 ± 1.6 µM

Q: With `Cc1sc2nc(-c3ccc(O)c(O)c3O)[nH]c(=O)c2c1C` [Compound 8, 5,6-Dimethyl-2-(2,3,4-trihydroxyphenyl)thieno[2,3-d]pyrimidin-4(3H)-one] as the molecule, how does the IC50 [1, 7] read?
A: 11.8 ± 1.85 µM

Q: What does the source list for `O=c1[nH]c(-c2cc(O)c(O)cc2O)nc2sc3c(c12)CCCCC3` [Compound 9, 2-(2,4,5-Trihydroxyphenyl)-3,5,6,7,8,9-hexahydro-4H-cyclohepta[4,5]thieno[2,3-d]pyrimidin-4-one]?
A: MI50 IN multimerization (HIV-1 IN multimerization): none succeeded in inducing multimerization; IC50 [4]: 6.35 ± 1.35 µM; IC50 [1, 7]: 0.965 ± 0.035 µM; IC50 [3]: 0.99 ± 0.09 µM; IC50 [6]: > 100 µM; IC50 IN/LEDGF/p75 binding [6]: inactive

Q: Which IC50 (HIV-1 IN K173A mutant) does the source give for `O=c1[nH]c(-c2cc(O)c(O)c(O)c2)nc2sc3c(c12)CCCCC3` [Compound 10, 2-(3,4,5-Trihydroxyphenyl)-3,5,6,7,8,9-hexahydro-4H-cyclohepta[4,5]thieno[2,3-d]pyrimidin-4-one] here?
A: 3.3 ± 0.86 µM

Q: What about the “Fold of increase of potency, K173A mutant” value (HIV-1 IN K173A mutant) of the same molecule?
A: 13.2

Q: And the “MI50 IN multimerization” value (HIV-1 IN multimerization)?
A: none succeeded in inducing multimerization

Q: What about the IC50 [4] of the same molecule?
A: 2.05 ± 0.35 µM

Q: What about the “effect on viral replication” value [5] of the same molecule?
A: not able to inhibit viral replication

Q: What about the IC50 [1, 7] of the same molecule?
A: 0.31 µM and 0.315 µM

Q: And the “increase of inhibitory capacity by sucrose (times)” value [1, 8]?
A: ~16

Q: What about the IC50 [3] of the same molecule?
A: 3.6 ± 0.39 µM

Q: What about the IC50 (HIV-1 IN H185A mutant; [9]) of the same molecule?
A: 2.27 ± 0.43 µM

Q: And the IC50 (HIV-1 IN H185A mutant; [10])?
A: 0.61 ± 0.022 µM

Q: And the “Fold of increase of potency, H185A mutant” value (HIV-1 IN H185A mutant)?
A: 3.7

Q: What about the cytotoxicity (human T-cell line CEM-SS) of the same molecule?
A: devoid of cytotoxicity

Q: And the IC50 [6]?
A: 6.16 ± 0.98 µM

Q: Which “MI50 IN multimerization” value (HIV-1 IN multimerization) does the source give for `O=c1[nH]c(-c2cc(O)c(O)cc2O)nc2sc3c(c12)CCC3` [Compound 12, 2-(2,4,5-Ttrihydroxyphenyl)-3,5,6,7-tetrahydro-4H-cyclopenta[4,5]thieno[2,3-d]pyrimidin-4-one] here?
A: none succeeded in inducing multimerization

Q: And the IC50 [4]?
A: 17.3 ± 1.7 µM

Q: What about the IC50 [3] of the same molecule?
A: 0.86 ± 0.14 µM

Q: What about the IC50 [6] of the same molecule?
A: 24.7 ± 1.75 µM

Q: For `O=c1[nH]c(-c2cc(O)c(O)c(O)c2)nc2sc3c(c12)CCC3` [Compound 13, 2-(3,4,5-Trihydroxyphenyl)-3,5,6,7-tetrahydro-4H-cyclopenta[4,5]thieno[2,3-d]pyrimidin-4-one], which IC50 [3] is on record?
A: 1.12 ± 0.22 µM

Q: With `CCCC(C(=O)O)c1c(C)nc2ccc(Cl)cc2c1-c1ccccc1` (centres unmarked) [LEDGIN-6, reference compound] as the molecule, how does the EC50 (HIV-1 IN multimerization; read-out: MI50 IN multimerization) read?
A: 10 ± 1 µM

Q: And the IC50 [4]?
A: > 100 µM

Q: And the “percentage in parentheses after >100, IN-IN subunit exchange” value ([4]; meaning of the bracketed percentage is not defined in the paper)?
A: >100 (100%)

Q: And the IC50 [1, 7]?
A: 9 ± 2 µM

Q: And the IC50 [3]?
A: 10 ± 2 µM

Q: What about the IC50 [6] of the same molecule?
A: 10 ± 0.4 µM

Q: For `OC[C@H]1O[C@@](CO)(O[C@H]2O[C@H](CO)[C@@H](O)[C@H](O)[C@H]2O)[C@@H](O)[C@@H]1O` [sucrose, reference compound], which “IC50 IN LEDGF/p75-dependent integration” value [1, 7] is on record?
A: inactive
